Test results published in patent US20170007553A1, “METHODS FOR THE PREVENTION AND TREATMENT OF CEREBRAL ISCHEMIA” (Edison Pharmaceuticals, Inc., priority 2009, published 2017).

How the values were obtained:
[1] = fraction of the activity of natural alpha-tocopherol; cited from earlier work
neuronal cells = details: nM/L concentrations; by suppressing early activation of c-Src kinase and 12-lipoxygenase; cited from earlier work
[2] = tested on: cerebral ischemia induced in rats (MCAO); assay: Animal cerebral infarct assay, rat middle cerebral artery occlusion (MCAO) with reperfusion; assay type: in vivo; details: for reduction of total infarct size: gavage, 500 mg/kg
[3] = administered at the time of reperfusion, rats

Cc1cc(O)cc2c1O[C@](C)(CCC[C@H](C)CCC[C@H](C)CCCC(C)C)CC2 [Delta-tocopherol]
activity relative to natural alpha-tocopherol [1]: one hundredth

Cc1c(C)c2c(c(C)c1O)CC[C@@](C)(CCC[C@H](C)CCC[C@H](C)CCCC(C)C)O2 [alpha-tocopherol]
blocking of glutamate-induced death (neuronal cells): not

CC(C)=CCC/C(C)=C/CC/C(C)=C/CC[C@@](C)(O)CCC1=C(C)C(=O)C(C)=C(C)C1=O [alpha-tocotrienol quinone]
reduction of cerebral edema relative to controls [2, 3]: 40% | reduction of total infarct volume relative to controls [2, 3]: 40% | reduction of total ischemic damage relative to controls [2, 3]: 40% | reduction of total infarct size ([2]; administered at reperfusion): 40% | reduction of total infarct size ([2]; administered at the time of MCAO): 40%

alpha-tocotrienol
blocking of glutamate-induced death (neuronal cells): blocked glutamate-induced death
